Data: patent publication US20130040935A1, “CYCLIC KETO-ENOLS FOR THERAPY” (BAYER INTELLECTUAL PROPERTY GMBH, priority 2010, published 2013)
Where two headings read alike, the source gives them in different places.

Assays:
MCF7 = assay: Cell proliferation assay (CellTiter-Glo, 96 h), MCF7; assay type: cell-based; conditions: Homo sapiens, MCF7; Table 7; 96-hour incubation
Summary of the method: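 CellTiter-Glo luminescence measured at t=0 (after overnight attachment) and after 96 h compound exposure at 37° C. Growth inhibition in percent calculated from t=0-corrected signals of treated versus untreated wells. Seeding density 2000-5000 cells/well, line-dependent.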

[1] = target: acetyl-CoA carboxylase 2 (ACC2) (Homo sapiens, UniProt O00763); assay: Human ACC2 enzyme assay, Assay A2 (HTRF ADP immunoassay);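 also: ADP generated by ACC2 quantified via competitive time-resolved FRET between europium cryptate anti-ADP antibody and d2-tagged ADP, enzyme kept in linear range near 0.6 ng/µl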
Protocol: The inhibitory activity of the substances of this invention with regard to acetyl-CoA carboxylase 2 (ACC2) was measured using the ACC2 assay described in the paragraphs below. The basic principle of the assay is the measurement of adenosine diphosphate (ADP), which is formed as a by-product, by means of an HTRF®-based competitive immunoassay (HTRF=Homogeneous Time Resolved Fluorescence).
The amount of complex of d2-labelled ADP and europium cryptate-labelled anti-ADP antibody was then determined by measuring the resonance energy transfer of europium cryptate to d2.

[2] = target: human ACC2 (acetyl-coenzyme A carboxylase 2) (Homo sapiens, UniProt O00763); assay: Human ACC2 enzyme assay, Assay B2 (ADP-Glo);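 also: human ACC2 activity read as ADP product, detected by luciferase glow luminescence after residual ATP removal, enzyme near 2 ng/µl in linear range, detection steps at 22 °C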
Protocol: The hACC2-inhibitory action of the substances of the present invention was measured in the hACC2 assay described in the paragraphs below.
Essentially, the enzyme activity is measured by quantifying the adenosine diphosphate (ADP) formed as a byproduct of the enzyme reactions using the ADP-Glo™ detection system from Promega. In this test, initially the adenosine triphosphate (ATP) not consumed in the enzyme reaction is converted quantitatively with an adenylate cyclase (“ADP-GLO reagent”) into cAMP, the adenylate cyclase is then stopped and (“kinase detection reagent”) the ADP formed is subsequently converted into ATP, which is converted in a luciferase-based reaction into a glow luminescence signal.
The concentration of the hACC2 was adapted to the respective activity of the enzyme and adjusted such that the assay operated in the linear range. Typical concentrations were in the range of 2 ng/μl. […] The amount of light emitted was taken as a measure for the amount of ADP formed and thus for the enzyme activity of the hACC2.

recombinant human ACC1 = recombinant human ACC1 (Homo sapiens, UniProt Q13085); assay: Human ACC1 enzyme assay, Assay A1 (HTRF ADP immunoassay);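 also: ADP generated by the enzyme quantified via competitive time-resolved FRET, read as europium cryptate to d2 energy transfer after 1 h at 22 °C with labelled ADP tracer and anti-ADP antibody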
Protocol: The inhibitory activity of the substances of this invention with regard to acetyl-CoA carboxylase 1 (ACC1) was measured using the ACC1 assay described in the paragraphs below. The basic principle of the assay is the measurement of adenosine diphosphate (ADP), which is formed as a by-product, by means of an HTRF®-based competitive immunoassay (HTRF=Homogeneous Time Resolved Fluorescence).
Typical concentrations were in the range of 2.5 ng/μl.
The amount of complex between d2-labelled ADP and europium cryptate-labelled anti-ADP antibody was then determined by measuring the resonance energy transfer from the europium cryptate to d2.

[3] = target: T1, human ACC1 (acetyl-coenzyme A carboxylase alpha transcript variant 1) (Homo sapiens, UniProt Q13085); assay: Human ACC1 enzyme assay, Assay B1 (ADP-Glo); assay type: biochemical
T1 construct: FLAG (C); made in house; host or cells: baculovirus-infected insect cells (Hi5)

[4] = Assay B1, read-out: ACC 1 (=B1) IC50

Chain of human ACC2 (acetyl-coenzyme A carboxylase 2) (O00763 27-2458 limits assumed): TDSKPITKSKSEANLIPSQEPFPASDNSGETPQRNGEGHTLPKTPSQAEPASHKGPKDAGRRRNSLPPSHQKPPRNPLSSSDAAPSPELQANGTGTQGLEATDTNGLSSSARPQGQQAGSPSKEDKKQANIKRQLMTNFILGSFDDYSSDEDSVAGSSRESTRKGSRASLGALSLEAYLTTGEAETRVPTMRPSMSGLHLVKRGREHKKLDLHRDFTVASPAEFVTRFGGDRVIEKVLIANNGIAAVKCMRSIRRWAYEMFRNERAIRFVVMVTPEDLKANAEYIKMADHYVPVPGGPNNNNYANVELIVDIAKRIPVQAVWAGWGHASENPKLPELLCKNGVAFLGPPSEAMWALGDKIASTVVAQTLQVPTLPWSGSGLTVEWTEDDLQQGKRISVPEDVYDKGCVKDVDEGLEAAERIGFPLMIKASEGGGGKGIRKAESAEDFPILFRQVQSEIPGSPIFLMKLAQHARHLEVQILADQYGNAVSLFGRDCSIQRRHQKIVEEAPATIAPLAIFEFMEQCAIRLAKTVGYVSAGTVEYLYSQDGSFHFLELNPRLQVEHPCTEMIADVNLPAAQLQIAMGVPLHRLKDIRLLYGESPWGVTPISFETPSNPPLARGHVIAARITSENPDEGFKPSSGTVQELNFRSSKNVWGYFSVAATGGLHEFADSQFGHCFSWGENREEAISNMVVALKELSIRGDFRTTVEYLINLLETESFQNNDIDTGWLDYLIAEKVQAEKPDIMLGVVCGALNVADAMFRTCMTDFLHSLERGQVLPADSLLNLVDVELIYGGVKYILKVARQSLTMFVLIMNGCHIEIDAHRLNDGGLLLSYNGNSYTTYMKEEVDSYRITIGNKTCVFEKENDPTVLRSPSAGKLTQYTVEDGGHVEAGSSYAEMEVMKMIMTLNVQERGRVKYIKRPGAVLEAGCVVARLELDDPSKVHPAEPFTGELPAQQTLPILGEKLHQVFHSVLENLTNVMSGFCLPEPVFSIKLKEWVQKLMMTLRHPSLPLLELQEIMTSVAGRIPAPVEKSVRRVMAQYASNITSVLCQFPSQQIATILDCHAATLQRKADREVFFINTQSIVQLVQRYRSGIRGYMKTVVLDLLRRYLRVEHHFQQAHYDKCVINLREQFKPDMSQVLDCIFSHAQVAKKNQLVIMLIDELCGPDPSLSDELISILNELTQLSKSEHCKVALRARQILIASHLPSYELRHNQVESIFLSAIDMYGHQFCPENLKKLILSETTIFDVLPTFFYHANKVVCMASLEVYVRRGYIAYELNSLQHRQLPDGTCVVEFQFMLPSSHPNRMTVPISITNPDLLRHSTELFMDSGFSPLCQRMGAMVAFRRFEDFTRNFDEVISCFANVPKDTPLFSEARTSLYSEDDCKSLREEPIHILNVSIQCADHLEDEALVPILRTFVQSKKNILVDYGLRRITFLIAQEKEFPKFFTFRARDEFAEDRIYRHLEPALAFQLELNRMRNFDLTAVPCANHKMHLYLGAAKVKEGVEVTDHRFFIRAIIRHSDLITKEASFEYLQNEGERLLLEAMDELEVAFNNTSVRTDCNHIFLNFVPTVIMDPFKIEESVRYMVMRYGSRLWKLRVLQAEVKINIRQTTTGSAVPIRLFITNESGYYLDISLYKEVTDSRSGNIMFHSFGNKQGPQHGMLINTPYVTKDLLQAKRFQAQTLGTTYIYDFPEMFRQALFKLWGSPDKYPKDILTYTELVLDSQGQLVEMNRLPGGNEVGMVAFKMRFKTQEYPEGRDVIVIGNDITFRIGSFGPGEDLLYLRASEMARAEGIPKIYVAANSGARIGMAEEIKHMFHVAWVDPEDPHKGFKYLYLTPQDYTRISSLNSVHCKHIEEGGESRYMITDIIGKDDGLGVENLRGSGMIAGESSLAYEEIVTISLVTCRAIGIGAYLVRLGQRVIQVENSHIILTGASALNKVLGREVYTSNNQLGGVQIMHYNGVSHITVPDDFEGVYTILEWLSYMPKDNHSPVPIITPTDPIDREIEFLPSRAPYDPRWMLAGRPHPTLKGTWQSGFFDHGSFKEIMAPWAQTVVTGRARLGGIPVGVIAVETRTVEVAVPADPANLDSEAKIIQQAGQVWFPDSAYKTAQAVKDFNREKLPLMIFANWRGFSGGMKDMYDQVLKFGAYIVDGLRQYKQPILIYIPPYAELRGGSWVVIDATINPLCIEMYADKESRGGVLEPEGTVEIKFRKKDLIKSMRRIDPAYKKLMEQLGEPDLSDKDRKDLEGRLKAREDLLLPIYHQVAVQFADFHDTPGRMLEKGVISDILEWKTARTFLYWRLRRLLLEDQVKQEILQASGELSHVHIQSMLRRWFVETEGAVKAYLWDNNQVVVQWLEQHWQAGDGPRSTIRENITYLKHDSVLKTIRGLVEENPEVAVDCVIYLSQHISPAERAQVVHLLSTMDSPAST
Chain of acetyl-CoA carboxylase 2 (ACC2) (O00763 39-2458 limits assumed): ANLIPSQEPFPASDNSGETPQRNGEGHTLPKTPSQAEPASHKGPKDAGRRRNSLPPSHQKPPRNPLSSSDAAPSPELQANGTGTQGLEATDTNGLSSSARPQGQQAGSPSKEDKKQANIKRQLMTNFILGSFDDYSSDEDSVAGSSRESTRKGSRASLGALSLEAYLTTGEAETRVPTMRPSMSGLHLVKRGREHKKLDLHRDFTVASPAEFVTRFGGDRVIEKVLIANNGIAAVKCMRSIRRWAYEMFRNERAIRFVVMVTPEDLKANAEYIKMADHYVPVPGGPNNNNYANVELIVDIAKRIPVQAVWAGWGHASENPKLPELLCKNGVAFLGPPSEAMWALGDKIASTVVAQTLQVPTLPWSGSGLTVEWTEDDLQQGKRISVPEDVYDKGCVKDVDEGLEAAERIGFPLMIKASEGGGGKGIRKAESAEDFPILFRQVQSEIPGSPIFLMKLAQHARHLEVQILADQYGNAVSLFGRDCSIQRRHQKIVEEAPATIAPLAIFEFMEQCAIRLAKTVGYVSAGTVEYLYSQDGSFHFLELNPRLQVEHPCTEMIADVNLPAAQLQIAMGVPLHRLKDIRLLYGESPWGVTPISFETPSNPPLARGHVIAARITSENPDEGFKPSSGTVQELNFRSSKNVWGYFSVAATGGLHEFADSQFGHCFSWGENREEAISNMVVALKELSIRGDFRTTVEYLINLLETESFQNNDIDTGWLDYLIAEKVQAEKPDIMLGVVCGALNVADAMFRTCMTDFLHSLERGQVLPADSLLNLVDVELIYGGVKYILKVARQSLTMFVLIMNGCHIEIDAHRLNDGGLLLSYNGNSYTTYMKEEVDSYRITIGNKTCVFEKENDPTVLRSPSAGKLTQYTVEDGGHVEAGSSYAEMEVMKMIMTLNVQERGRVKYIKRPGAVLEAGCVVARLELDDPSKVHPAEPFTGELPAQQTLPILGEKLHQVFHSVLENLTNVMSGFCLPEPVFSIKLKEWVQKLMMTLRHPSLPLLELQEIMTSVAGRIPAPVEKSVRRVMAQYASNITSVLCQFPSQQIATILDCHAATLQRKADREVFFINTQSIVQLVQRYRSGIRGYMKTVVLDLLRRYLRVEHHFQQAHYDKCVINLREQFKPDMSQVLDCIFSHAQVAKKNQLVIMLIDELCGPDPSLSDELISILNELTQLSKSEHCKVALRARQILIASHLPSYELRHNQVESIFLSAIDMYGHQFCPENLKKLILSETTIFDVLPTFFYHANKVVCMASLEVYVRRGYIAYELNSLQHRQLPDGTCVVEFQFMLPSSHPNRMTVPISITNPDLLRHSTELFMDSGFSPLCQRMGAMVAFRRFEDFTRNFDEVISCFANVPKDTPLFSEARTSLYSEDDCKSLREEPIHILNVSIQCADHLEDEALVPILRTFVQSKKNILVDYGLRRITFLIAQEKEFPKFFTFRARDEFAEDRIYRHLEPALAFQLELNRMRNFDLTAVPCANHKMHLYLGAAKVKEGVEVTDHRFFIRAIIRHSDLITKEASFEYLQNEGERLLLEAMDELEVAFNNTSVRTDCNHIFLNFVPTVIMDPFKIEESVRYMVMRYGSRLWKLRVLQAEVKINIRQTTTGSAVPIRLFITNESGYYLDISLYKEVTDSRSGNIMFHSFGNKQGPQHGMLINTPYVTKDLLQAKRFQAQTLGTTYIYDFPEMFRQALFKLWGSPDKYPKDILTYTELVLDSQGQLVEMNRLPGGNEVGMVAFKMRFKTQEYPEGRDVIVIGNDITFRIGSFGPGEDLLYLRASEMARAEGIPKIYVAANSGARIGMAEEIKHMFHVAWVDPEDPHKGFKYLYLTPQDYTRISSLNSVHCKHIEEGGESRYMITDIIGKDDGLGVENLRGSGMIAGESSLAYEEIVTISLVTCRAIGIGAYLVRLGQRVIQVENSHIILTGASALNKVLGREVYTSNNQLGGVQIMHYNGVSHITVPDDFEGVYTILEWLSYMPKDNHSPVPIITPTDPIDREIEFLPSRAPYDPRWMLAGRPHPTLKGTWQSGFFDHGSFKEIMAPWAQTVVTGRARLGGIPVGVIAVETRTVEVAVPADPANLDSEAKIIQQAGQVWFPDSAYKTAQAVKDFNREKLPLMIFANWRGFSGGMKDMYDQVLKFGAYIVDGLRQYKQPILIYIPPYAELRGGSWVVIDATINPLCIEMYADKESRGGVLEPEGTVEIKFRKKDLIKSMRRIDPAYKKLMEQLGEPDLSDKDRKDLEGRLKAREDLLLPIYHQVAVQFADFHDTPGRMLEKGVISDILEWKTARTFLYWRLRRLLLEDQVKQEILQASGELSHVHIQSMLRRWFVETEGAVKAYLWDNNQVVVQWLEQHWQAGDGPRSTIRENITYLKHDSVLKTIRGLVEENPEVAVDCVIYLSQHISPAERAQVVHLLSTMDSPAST

`CO[C@H]1CC[C@]2(CC1)NC(=O)C(c1cc(-c3ccc(Cl)cc3)c(Cl)cc1C)=C2O` [1-109, (5s,8s)-3-(4′,6-Dichloro-4-methylbiphenyl-3-yl)-4-hydroxy-8-methoxy-1-azaspiro[4.5]dec-3-en-2-one] showed an IC50 (MCF7) of 37 nM, an IC50 [1] of 103 nM and an IC50 [2] of 394 nM. For the same compound, the IC50 (recombinant human ACC1) was 800 nM and the IC50 [3] was 293 nM.

Compound `Cc1ccc(-c2ccc(Cl)c(F)c2)cc1C1=C(O)[C@]2(CC[C@H](C)CC2)NC1=O` [1-110, (5s,8s)-3-(4′-Chloro-3′-fluoro-4-methylbiphenyl-3-yl)-4-hydroxy-8-methyl-1-azaspiro[4.5]dec-3-en-2-one] has an IC50 (MCF7) of 45 nM, an IC50 [1] of 640 nM and an IC50 [2] of 488 nM. It also gave an IC50 (recombinant human ACC1) of 194 nM and an IC50 [3, 4] of 80 nM.

For `COC[C@H]1CC[C@]2(CC1)NC(=O)C(c1cc(-c3ccc(Cl)c(F)c3)ccc1C)=C2O` [1-111, (5s,8s)-3-(4′-Chloro-3′-fluoro-4-methylbiphenyl-3-yl)-4-hydroxy-8-(methoxymethyl)-1-azaspiro[4.5]dec-3-en-2-one], the IC50 (MCF7) was 194 nM, the IC50 [1] was 592 nM and the IC50 [2] was 1120 nM. The IC50 (recombinant human ACC1) was 177 nM and the IC50 [3, 4] was 126 nM.

For `COC[C@H]1CC[C@]2(CC1)NC(=O)C(c1cc(-c3ccc(Cl)c(F)c3)ccc1Cl)=C2O` [1-113, (5s,8s)-3-(4,4′-Dichloro-3′-fluorobiphenyl-3-yl)-4-hydroxy-8-(methoxymethyl)-1-azaspiro[4.5]dec-3-en-2-one], the IC50 (MCF7) was 46 nM, the IC50 [1] was 1350 nM and the IC50 [2] was 2710 nM. The IC50 (recombinant human ACC1) was 260 nM and the IC50 [3] was 101 nM.

With `COCC[C@H]1CC[C@]2(CC1)NC(=O)C(c1cc(-c3ccc(Cl)c(F)c3)ccc1C)=C2O` [1-114, (5s,8s)-3-(4′-Chloro-3′-fluoro-4-methylbiphenyl-3-yl)-4-hydroxy-8-(2-methoxyethyl)-1-azaspiro[4.5]dec-3-en-2-one] the IC50 (MCF7) was 43 nM, the IC50 [1] was 2210 nM and the IC50 [2] was 1640 nM. For the same compound, the IC50 (recombinant human ACC1) was 236 nM and the IC50 [3, 4] was 113 nM.

`Cc1ccc(-c2ccc(F)c(F)c2)cc1C1=C(O)C2(CCCCC2)NC1=O` [1-115, 3-(3′,4′-Difluoro-4-methylbiphenyl-3-yl)-4-hydroxy-1-azaspiro[4.5]dec-3-en-2-one] gave an IC50 (MCF7) of 98 nM, an IC50 [1] of 5040 nM and an IC50 [2] of 10300 nM. For the same compound, the IC50 (recombinant human ACC1) was 314 nM and the IC50 [3] was 196 nM.

With `COC[C@H]1CC[C@]2(CC1)NC(=O)C(c1cc(-c3ccc(Cl)cc3)ccc1C)=C2O` [1-116, (5s,8s)-3-(4′-Chloro-4 methylbiphenyl-3-yl)-4-hydroxy-8-(methoxymethyl)-1-azaspiro[4.5]dec-3-en-2-one] the IC50 (MCF7) was 31 nM, the IC50 [1] was 280 nM and the IC50 [2] was 591 nM. It also gave an IC50 (recombinant human ACC1) of 232 nM and an IC50 [3, 4] of 92 nM.

In the case of `Cc1ccc(-c2ccc(Cl)cc2)cc1C1=C(O)[C@]2(CC[C@H](CO)CC2)NC1=O` [1-117, (5s,8s)-3-(4′-Chloro-4 methylbiphenyl-3-yl)-4-hydroxy-8-(hydroxymethyl)-1-azaspiro[4.5]dec-3-en-2-one], the IC50 (MCF7) is reported as 64 nM, the IC50 [1] is reported as 812 nM and the IC50 [2] is reported as 4110 nM. The IC50 (recombinant human ACC1) was 232 nM and the IC50 [3] was 194 nM.

Compound `Cc1ccc(-c2ccc(Cl)cc2)cc1C1=C(O)[C@]2(CC[C@H](C(F)(F)F)CC2)NC1=O` [1-119, (5s,8s)-3-(4′-Chloro-4 methylbiphenyl-3-yl)-4-hydroxy-8-(trifluoromethyl)-1-azaspiro[4.5]dec-3-en-2-one] has an IC50 (MCF7) of 37 nM, an IC50 [1] of 479 nM and an IC50 [2] of 1080 nM. It also gave an IC50 (recombinant human ACC1) of 203 nM and an IC50 [3, 4] of 110 nM.

With `Cc1ccc(-c2ccc(Cl)cc2)cc1C1=C(O)[C@]2(CC[C@](O)(C(F)(F)F)CC2)NC1=O` [1-122, (5r,8r)-3-(4′-Chloro-4-methylbiphenyl-3-yl)-4,8-dihydroxy-8-(trifluoromethyl)-1-azaspiro[4.5]dec-3-en-2-one] the IC50 (MCF7) was 288 nM, the IC50 [1] was 5420 nM and the IC50 [2] was 6590 nM. The IC50 (recombinant human ACC1) was 98 nM and the IC50 [3, 4] was 124 nM.

`Cc1ccc(-c2ccc(Cl)c(F)c2)cc1C1=C(O)[C@]2(CC[C@](O)(C(F)(F)F)CC2)NC1=O` [1-123, (5r,8r)-3-(4′-Chloro-3′-fluoro-4-methylbiphenyl-3-yl)-4,8-dihydroxy-8-(trifluoromethyl)-1-azaspiro[4.5]dec-3-en-2-one] was tested, and the IC50 (MCF7) was 309 nM, the IC50 [1] was 3440 nM and the IC50 [2] was 11200 nM. It also gave an IC50 (recombinant human ACC1) of 173 nM and an IC50 [3, 4] of 562 nM.

For `Cc1ccc(-c2ccc(F)c(F)c2)cc1C1=C(O)[C@]2(CC[C@](O)(C(F)(F)F)CC2)NC1=O` [1-124, (5r,8r)-3-(3′,4′-Difluoro-4-methylbiphenyl-3-yl)-4,8-dihydroxy-8-(trifluoromethyl)-1-azaspiro[4.5]dec-3-en-2-one], the IC50 (MCF7) was 1700 nM, the IC50 [1] was > 20000 nM and the IC50 [2] was > 20000 nM. The IC50 (recombinant human ACC1) was 458 nM and the IC50 [3, 4] was 467 nM.

`Cc1ccc(-c2ccc(Cl)cc2)c(C)c1C1=C(O)[C@]2(CC[C@](O)(C(F)(F)F)CC2)NC1=O` [1-125, (5r,8r)-3-(4′-Chloro-2,4-dimethylbiphenyl-3-yl)-4,8-dihydroxy-8-(trifluoromethyl)-1-azaspiro[4.5]dec-3-en-2-one] showed an IC50 (MCF7) of 322 nM, an IC50 [1] of 3990 nM and an IC50 [2] of 6770 nM. The IC50 (recombinant human ACC1) was 281 nM and the IC50 [3, 4] was 217 nM.

`Cc1ccc(-c2ccc(Cl)c(F)c2)c(C)c1C1=C(O)[C@]2(CC[C@](O)(C(F)(F)F)CC2)NC1=O` [1-126, (5r,8r)-3-(4′-Chloro-3′-fluoro-2,4-dimethylbiphenyl-3-yl)-4,8-dihydroxy-8-(trifluoromethyl)-1-azaspiro[4.5]dec-3-en-2-one] was tested, and the IC50 (MCF7) was 594 nM, the IC50 [1] was 6370 nM and the IC50 [2] was 12400 nM. It also gave an IC50 (recombinant human ACC1) of 300 nM and an IC50 [3, 4] of 204 nM.

For `Cc1cc(F)c(-c2ccc(Cl)cc2)cc1C1=C(O)[C@]2(CC[C@](O)(C(F)(F)F)CC2)NC1=O` [1-127, (5r,8r)-3-(4′-Chloro-6-fluoro-4-methylbiphenyl-3-yl)-4,8-dihydroxy-8-(trifluoromethyl)-1-azaspiro[4.5]dec-3-en-2-one], the IC50 (MCF7) was 1400 nM, the IC50 [1] was 4840 nM and the IC50 [2] was 13400 nM. It also gave an IC50 (recombinant human ACC1) of 216 nM and an IC50 [3, 4] of 145 nM.

Work on `Cc1ccc(-c2ccc(F)c(F)c2)cc1C1=C(O)[C@]2(CC[C@@H](C(F)(F)F)CC2)NC1=O` [1-129, (5r,8r)-3-(3′,4′-Difluoro-4-methylbiphenyl-3-yl)-4-hydroxy-8-(trifluoromethyl)-1-azaspiro[4.5]dec-3-en-2-one] yielded an IC50 (MCF7) of 172 nM, an IC50 [1] of 9610 nM and an IC50 [2] of 10600 nM. It also gave an IC50 (recombinant human ACC1) of 349 nM and an IC50 [3, 4] of 267 nM.

`Cc1ccc(-c2ccc(Cl)c(F)c2)cc1C1=C(O)[C@]2(CC[C@](O)(C(F)(F)C(F)(F)F)CC2)NC1=O` [1-130, (5r,8r)-3-(4′-Chloro-3′-fluoro-4-methylbiphenyl-3-yl)-4,8-dihydroxy-8-(pentafluoroethyl)-1-azaspiro[4.5]dec-3-en-2-one] was tested, and the IC50 (MCF7) was 61 nM, the IC50 [1] was 4400 nM and the IC50 [2] was 5890 nM. The IC50 (recombinant human ACC1) was 133 nM and the IC50 [3, 4] was 108 nM.

`Cc1cc(F)c(-c2ccc(Cl)cc2)cc1C1=C(O)[C@]2(CC[C@](O)(C(F)(F)C(F)(F)F)CC2)NC1=O` [1-131, (5r,8r)-3-(4′-Chloro-6-fluoro-4-methylbiphenyl-3-yl)-4,8-dihydroxy-8-(pentafluoroethyl)-1-azaspiro[4.5]dec-3-en-2-one] was tested, and the IC50 (MCF7) was 60 nM, the IC50 [1] was 7620 nM and the IC50 [2] was 5620 nM. It also gave an IC50 (recombinant human ACC1) of 266 nM and an IC50 [3, 4] of 98 nM.

In the case of `CO[C@H]1CC[C@]2(CC1)NC(=O)C(c1cc(-c3ccc(Cl)cc3)c(C)cc1C)=C2O` [1-132, (5s,8s)-3-(4′-Chloro-4,6-dimethylbiphenyl-3-yl)-4-hydroxy-8-methoxy-1-azaspiro[4.5]dec-3-en-2-one], the IC50 (MCF7) is reported as 70 nM, the IC50 [1] is reported as 106 nM and the IC50 [2] is reported as 234 nM. For the same compound, the IC50 (recombinant human ACC1) was 1710 nM and the IC50 [3] was 912 nM.

`Cc1ccc(-c2ccc(Cl)cc2)cc1C1=C(O)[C@@]2(CCC[C@H](C(F)(F)F)C2)NC1=O` [1-133, (5S,7S)-3 (4′-Chloro-4 methylbiphenyl-3-yl)-4-hydroxy-7-(trifluoromethyl)-1-azaspiro[4.5]dec-3-en-2-one] showed an IC50 (MCF7) of 75 nM, an IC50 [1] of 2870 nM and an IC50 [2] of 8100 nM. The IC50 (recombinant human ACC1) was 329 nM and the IC50 [3, 4] was 142 nM.

In the case of `O=C1N[C@]2(CC[C@@H](C(F)(F)F)CC2)C(O)=C1c1cc(-c2ccc(Cl)cc2)ccc1Cl` [1-134, (5s,8s)-3-(4,4′-Dichlorobiphenyl-3-yl)-4-hydroxy-8 (trifluoromethyl)-1-azaspiro[4.5]dec-3-en-2-one], the IC50 (MCF7) is reported as 114 nM, the IC50 [1] is reported as 1310 nM and the IC50 [2] is reported as 2850 nM. It also gave an IC50 (recombinant human ACC1) of 299 nM and an IC50 [3, 4] of 109 nM.

With `CO[C@H]1CC[C@]2(CC1)NC(=O)C(c1cc(-c3ccc(Cl)cc3)c(F)cc1C)=C2O` [1-135, (5s,8s)-3-(4′-Chloro 6 fluoro 4-methylbiphenyl-3-yl)-4-hydroxy-8-methoxy-1-azaspiro[4.5]dec-3-en-2-one] the IC50 (MCF7) was 171 nM, the IC50 [1] was 657 nM and the IC50 [2] was 1750 nM. It also gave an IC50 (recombinant human ACC1) of 220 nM and an IC50 [3] of 94 nM.

`CO[C@H]1CC[C@]2(CC1)NC(=O)C(c1cc(-c3ccc(F)c(F)c3)ccc1C)=C2O` [1-136, (5s,8s)-3-(3′,4′-Difluoro-4-methylbiphenyl-3-yl)-4-hydroxy-8-methoxy-1-azaspiro[4.5]dec-3-en-2-one] was tested, and the IC50 (MCF7) was 156 nM, the IC50 [1] was 6490 nM and the IC50 [2] was 12500 nM. The IC50 (recombinant human ACC1) was 239 nM and the IC50 [3] was 233 nM.

Compound `O=C1N[C@]2(CCC[C@H](C(F)(F)F)C2)C(O)=C1c1cc(-c2ccc(Cl)cc2)ccc1Cl` [1-137, (5S,7S)-3-(4,4′-Dichlorobiphenyl-3-yl)-4-hydroxy-7-(trifluoromethyl)-1-azaspiro[4.5]dec-3-en-2-one] has an IC50 (MCF7) of 439 nM, an IC50 [1] of 7750 nM and an IC50 [2] of 7490 nM. The IC50 (recombinant human ACC1) was 307 nM and the IC50 [3] was 168 nM.
